Molecules are shown by their SMILES. Positions of bridges follow the written chain, without caps; N, C: chain ends. Non-standard residues stand in square brackets, D forms with d. Residues, ends and D or L forms follow the SMILES beside them. *: point of attachment. hPhe(3-Cl-4-CF3) = N[C@@H](CCc1ccc(C(F)(F)F)c(Cl)c1)C(=O)O; NMePhe(4-CN) = CN[C@@H](Cc1ccc(C#N)cc1)C(=O)O; Thiomorpholino(1,1-dioxo) = O=S1(=O)CCN(*)CC1; NMePhe(4-Cl) = CN[C@@H](Cc1ccc(Cl)cc1)C(=O)O; NMePhe(4-Me) = CN[C@@H](Cc1ccc(C)cc1)C(=O)O; NMeMet(O2) = CN[C@@H](CCS(C)(=O)=O)C(=O)O; NMeCha = CN[C@@H](CC1CCCCC1)C(=O)O; NMeF = CN[C@@H](Cc1ccccc1)C(=O)O; NMeI = CC[C@H](C)[C@H](NC)C(=O)O; NMeD = CN[C@@H](CC(=O)O)C(=O)O; NMeL = CN[C@@H](CC(C)C)C(=O)O; NMeV = CN[C@H](C(=O)O)C(C)C; NMeA = CN[C@@H](C)C(=O)O; Piperidide = C1CCN(*)CC1; Pyrrolidide = C1CCN(*)C1; Ac5c = NC1(C(=O)O)CCCC1; Aze = O=C(O)[C@@H]1CCN1; Sar = CNCC(=O)O

T1 sequence (P01116 1-188 isoform P01116-2 G12D): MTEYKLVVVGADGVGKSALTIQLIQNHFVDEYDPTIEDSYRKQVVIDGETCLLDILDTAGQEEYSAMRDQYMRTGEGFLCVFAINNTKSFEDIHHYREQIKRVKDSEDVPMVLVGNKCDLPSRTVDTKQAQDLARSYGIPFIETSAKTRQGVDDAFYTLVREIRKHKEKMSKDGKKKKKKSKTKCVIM

The assay has as its target T1, Kras and SOS1 (biotin-tagged human Kras loaded with GDP, His-tagged human SOS1) (Homo sapiens, UniProt P01116, G12D).
T1 construct: made in house; host or cells: E. coli (stated for Kras only)
The assay can be described thus: Protein-protein interaction inhibition between Kras and SOS1 (KrasGl2D-SOS PPI) using AlphaScreen. The settings on record: AlphaScreen; biotin-tagged human Kras loaded with GDP, His-tagged human SOS1; read-out: KRAS G12D-SOS PPI IC50. The assay is classed as binding. In outline:
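Kras was produced in E. coli, purified, then loaded with GDP. It was paired via streptavidin acceptor beads with His-SOS1 held on nickel donor beads, and proximity signal at 520-620 nm was read after 680 nm illumination.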
On to `CC[C@H](C)[C@@H]1NC(=O)[C@H](CC(C)C)N(C)C(=O)C[C@@H](C(=O)N2CCCCC2)N(C)C(=O)[C@H](C(C)C)NC(=O)C2(CCCC2)NC(=O)[C@@H]2CCCN2C(=O)[C@H](CCc2ccc(C(F)(F)F)c(Cl)c2)NC(=O)CN(C)C(=O)[C@H](CC2CCCCC2)N(C)C(=O)[C@@H]2CCN2C(=O)[C@H](C)N(C)C1=O` [Compound 1106] ([NMeL]I[NMeA][Aze][NMeCha][Sar][hPhe(3-Cl-4-CF3)]P[Ac5c]V[NMeD]-Piperidide; lactam N-11), for which the IC50 was found to be 35 nM.

`CC[C@H](C)[C@@H]1NC(=O)[C@H](C)N(C)C(=O)C[C@@H](C(=O)N2CCCCC2)N(C)C(=O)[C@H](C(C)C)N(C)C(=O)C2(CCCC2)NC(=O)[C@@H]2CCCN2C(=O)[C@H](CCc2ccc(C(F)(F)F)c(Cl)c2)NC(=O)[C@H]2CCCN2C(=O)[C@H](CC2CCCCC2)N(C)C(=O)[C@@H]2CCN2C(=O)[C@H](C)N(C)C1=O` [Compound 293] ([NMeA]I[NMeA][Aze][NMeCha][dP][hPhe(3-Cl-4-CF3)]P[Ac5c][NMeV][NMeD]-Piperidide; lactam N-11): the IC50 turned out to be 120 nM.

Consider `CC[C@H](C)[C@@H]1NC(=O)[C@H](CC(C)C)N(C)C(=O)C[C@@H](C(=O)N(C)C)N(C)C(=O)[C@H]([C@@H](C)CC)N(C)C(=O)[C@H](C)NC(=O)[C@H](C)N(C)C(=O)[C@H](CCc2ccc(C(F)(F)F)c(Cl)c2)NC(=O)CN(C)C(=O)[C@H](Cc2ccc(C)cc2)N(C)C(=O)[C@@H]2CCN2C(=O)[C@H](C)N(C)C1=O` [Compound 715] ([NMeL]I[NMeA][Aze][NMePhe(4-Me)][Sar][hPhe(3-Cl-4-CF3)][NMeA]A[NMeI][NMeD]-NMe2; lactam N-11), for which the IC50 stood at 6.1 nM.

As to `CC[C@H](C)[C@@H]1NC(=O)[C@H](C)N(C)C(=O)C[C@@H](C(=O)N2CCCC2)NC(=O)[C@H](CC(C)C)N(C)C(=O)[C@H](Cc2ccccc2)N(C)C(=O)[C@H](CC(C)C)NC(=O)[C@H](Cc2ccccc2)NC(=O)CN(C)C(=O)[C@H](Cc2ccc(Cl)cc2)N(C)C(=O)CN(C)C(=O)CN(C)C1=O` [Compound 613] ([NMeA]I[Sar][Sar][NMePhe(4-Cl)][Sar]FL[NMeF][NMeL]D-Pyrrolidide; lactam N-11), the IC50 turned out to be 500 nM.

In the case of `CC[C@H](C)[C@@H]1NC(=O)[C@H](CC(C)C)N(C)C(=O)C[C@@H](C(=O)N2CCCCC2)N(C)C(=O)[C@H](C(C)C)N(C)C(=O)C2(CCCC2)NC(=O)[C@@H]2CCCN2C(=O)[C@H](CCc2ccc(C(F)(F)F)c(Cl)c2)NC(=O)CN(C)C(=O)[C@H](Cc2ccc(C#N)cc2)N(C)C(=O)CN(C)C(=O)CN(C)C1=O` [Compound 867] ([NMeL]I[Sar][Sar][NMePhe(4-CN)][Sar][hPhe(3-Cl-4-CF3)]P[Ac5c][NMeV][NMeD]-Piperidide; lactam N-11), the IC50 stood at 3.4 nM.

Take `CC[C@H](C)[C@@H]1NC(=O)[C@H](CC(C)C)N(C)C(=O)C[C@@H](C(=O)N2CCS(=O)(=O)CC2)N(C)C(=O)[C@H](C(C)C)N(C)C(=O)C2(CCCC2)NC(=O)[C@@H]2CCCN2C(=O)[C@H](CCc2ccc(C(F)(F)F)c(Cl)c2)NC(=O)CN(C)C(=O)[C@H](CC2CCCCC2)N(C)C(=O)[C@@H]2CCN2C(=O)[C@H](C)N(C)C1=O` [Compound 1238] ([NMeL]I[NMeA][Aze][NMeCha][Sar][hPhe(3-Cl-4-CF3)]P[Ac5c][NMeV][NMeD]-{Thiomorpholino(1,1-dioxo)}; lactam N-11): the IC50 came out at 9.9 nM.

Take `CC[C@H](C)[C@@H]1NC(=O)[C@H](CC(C)C)N(C)C(=O)C[C@@H](C(=O)N2CCCCC2)N(C)C(=O)[C@H](C(C)C)N(C)C(=O)C2(CCCC2)NC(=O)[C@@H]2CCCN2C(=O)[C@H](CCc2ccc(C(F)(F)F)c(Cl)c2)NC(=O)CN(C)C(=O)[C@H](CCS(C)(=O)=O)N(C)C(=O)[C@@H]2CCN2C(=O)[C@H](C)N(C)C1=O` [Compound 235] ([NMeL]I[NMeA][Aze][NMeMet(O2)][Sar][hPhe(3-Cl-4-CF3)]P[Ac5c][NMeV][NMeD]-Piperidide; lactam N-11): the IC50 was 11 nM.

The record behind these values is patent US12371454B2, “Cyclic peptide compound having Kras inhibitory action” (priority 2019, dated 2025).
